Patent US9850206B2, “S1P and/or ATX modulating agents” (BIOGEN MA INC., priority 2012, dated 2017)
Like-named read-outs stand apart in the source and are kept apart here.

Key:
S1P1 = S1P1 (Homo sapiens, UniProt P21453); assay: S1P receptor activity assay (calcium flux, FLIPR TETRA), S1P1; format: cell-based
Description: (§1) Agonist percentage activation determinations were obtained by assaying sample compounds and referencing the Emax control for each receptor profiled. Antagonist percentage inhibition determinations were obtained by assaying sample compounds and referencing the control EC80 wells for each receptor profiled. The samples were run using a “Single Addition” assay protocol for the agonist and antagonist assay run. The protocol design was as follows:
(§2) Master stock solution: Unless specified otherwise, all sample compounds were diluted in 100% anhydrous DMSO including all serial dilutions. All control wells contained identical solvent final concentrations as did the sample compound wells.
(§3) Compound plate for assay: The sample compounds were transferred from a master stock solution into a daughter plate that was used in the assay. Each sample compound was diluted into assay buffer (1×HBSS with 20 mM HEPES and 2.5 mM Probenecid) at an appropriate concentration to obtain final concentrations.
(§4) Sample compounds were plated in an eight-point, four-fold dilution series in duplicate with a top concentration of 10 μM. The concentrations described here reflect the final concentration of the compounds during the antagonist assay.
(§5) Reference agonists were handled as mentioned above serving as assay control. The reference agonists were handled as described above for Emax.
(§6) Assay was read for 180 seconds using the […] (This assay run added sample compounds and reference agonist to respective wells). At the completion of the first “Single Addition” assay run, assay plate was removed from the […] and placed at 25° C. for seven (7) minutes.
(§7) Using the EC80 values determined during the agonist assay, stimulated all pre-incubated sample compound and reference antagonist (if applicable) wells with EC80 of reference agonist. Read for 180 seconds using the […] (This assay added reference agonist to respective wells—then fluorescence measurements were collected to calculate percentage inhibition values).
(§8) All plates were subjected to appropriate baseline corrections. Once baseline corrections were processed, maximum fluorescence values were exported and data manipulated to calculate percentage activation, percentage inhibition and Z′.

[1] = system: OPCs (oligodendrocyte precursor cells); assay: OPC differentiation assay; format: cell-based, Sprague Dawley rats; conditions: 2 μM and 20 μM, 3-day incubation
Method: Enriched populations of oligodendrocytes were grown from post-natal day 2 (P2) female Sprague Dawley rats. The forebrain was dissected out and placed in Hank's buffered saline solution (HBSS; Invitrogen, Grand Island, N.Y.). The tissue was cut into 1 mm fragments and incubated at 37° C. for 15 minutes in 0.01% trypsin and 10 μg/mL DNase. Dissociated cells were plated on poly-L-lysine-coated T75 tissue culture flasks and grown at 37° C. for 10 days in Dulbecco's modified Eagle's medium (DMEM) with 20% fetal calf serum (Invitrogen). A2B5+OPCs were collected by shaking the flask overnight at 200 rpm and 37° C., resulting in a 95% pure population.
For the differentiation assay, 2 μM and 20 μM antagonist or the same concentrations of vehicle (DMSO) were applied to OPCs cultured in CNTF/T3 containing media. After a 3-day incubation, […], cell were lysed and then subjected to MSD (Meso Scale Discovery-R) analysis. EC50 was calculated by Prism using a nonlinear sigmoidal dose-response curvecells. […] After centrifugation at 14,000 g for 15 minutes, the supernatants were boiled in Laemmli sample buffer, subjected to 4-20% SDS-PAGE, and analyzed by Western blotting with anti-MBP, anti-myelin-associated glycoprotein (MAG), or anti-beta actin antibodies. […]

S1P5 = S1P5 (Homo sapiens, UniProt Q9H228); assay: S1P receptor activity assay (calcium flux, FLIPR TETRA), S1P5; format: cell-based
Description: as §1, §2, §3, §4, §5, §6, §7, §8

Human ATX protein = target: T1, Human ATX protein (Homo sapiens, UniProt Q13822); assay: Autotaxin (ATX) FRET assay with FS-3 substrate; format: biochemical
T1 construct: made in house
Description: ATX (Autotaxin) is a 125 KDa glycoprotein with lysophospholipase D (LPLD) activity that generates the bioactive lipid lysophosphatidic acid (LPA) from lysophosphatidylcholine (LPC). The ATX biochemical assay utilizes a FRET (fluorescence resonance energy transfer) technology platform. […] ATX catalyzes the hydrolysis of the substrate which separates the dabsyl quencher from the fluorescein reporter, which becomes fluorescent. The reaction is monitored by a SpectraMax M5 (Molecular Devices, Sunnyvale, Calif.) with at excitation wavelength 485 nm and emission wavelength 535 nm.
Fatty acid free-BSA (Sigma A8806): 10 mg/mL in H2O, stored at 4° C.
2×ATX assay buffer: 100 mM Tris, 280 mM NaCl, 10 mM KCl, 2 mM CaCl2, 2 mM MgCl2, pH 7.4.
Human ATX protein: expressed and purified in house. Stored at −80° C.
Substrate FS-3 (Echelon, L-2000): 100 μg in 77.74 μL H2O (1 mM stock), stored at −20° C.
Compound dilution—All compounds were provided at 10 mM in 100% DMSO. In the first well, 2 μL of 10 mM compound was added to 78 μL of DMSO (1:40 dilution). In subsequent wells 3-fold dilution (total 10 dilutions) were performed.
1×ATX assay buffer was made up with a final concentration of 1 mg/mL fatty acid free-BSA using 2×ATX assay buffer, 10 mg/ml fatty acid free-BSA and ddH2O.
38 μL was added per well to the assay plate. The final concentration of ATX in the reaction as 1.0 μg/mL.
2 μL per well of compounds was transferred to provide the desired concentration. The plate was centrifuged, then incubated at room temperature for 30 minutes on the shaker.
FS-3 was diluted with 1×ATX assay buffer to a concentration of FS-3 of 10 μM (5×). Then, 10 μL was added per well to the assay plate. The final concentration of FS-3 in the reaction was 2 μM. The plate was centrifuged. The plate was kept shaking at room temperature for 2 hours. Because FS-3 substrate is light sensitive, plates were kept covered and protected from light.

S1P4 = target: T2, S1P4 (Homo sapiens, UniProt O95977); assay: S1P receptor activity assay (calcium flux, FLIPR TETRA), S1P4; format: cell-based
T2 sequence (O95977 1-384): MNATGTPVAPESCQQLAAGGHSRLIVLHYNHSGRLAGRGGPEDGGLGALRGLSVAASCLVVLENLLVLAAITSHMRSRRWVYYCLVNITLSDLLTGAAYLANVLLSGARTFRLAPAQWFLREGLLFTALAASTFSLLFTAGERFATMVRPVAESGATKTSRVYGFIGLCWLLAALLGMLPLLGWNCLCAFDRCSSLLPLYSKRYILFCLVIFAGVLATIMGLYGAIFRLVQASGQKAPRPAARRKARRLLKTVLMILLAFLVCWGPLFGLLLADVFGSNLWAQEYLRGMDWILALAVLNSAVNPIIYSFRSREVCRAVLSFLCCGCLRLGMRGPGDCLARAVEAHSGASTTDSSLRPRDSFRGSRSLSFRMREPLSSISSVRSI
Description: as §1, §2, §3, §4, §5, §6, §7, §8

[2] = calcium flux, top concentration 10 μM, the >5 μM sentence says only 'for S1P1', read-out: IC50 for S1P1 agonist activity
[3] = calcium flux, top concentration 10 μM, read-out: IC50 for S1P5
[4] = FS-3 2 μM, ATX 1.0 μg/mL, 2 hours at room temperature, read-out: IC50 (ATX)
[5] = calcium flux, top concentration 10 μM, the >5 μM sentence says only 'for S1P4', read-out: IC50 for S1P4 agonist activity

Chain of S1P5 (Q9H228 whole entry): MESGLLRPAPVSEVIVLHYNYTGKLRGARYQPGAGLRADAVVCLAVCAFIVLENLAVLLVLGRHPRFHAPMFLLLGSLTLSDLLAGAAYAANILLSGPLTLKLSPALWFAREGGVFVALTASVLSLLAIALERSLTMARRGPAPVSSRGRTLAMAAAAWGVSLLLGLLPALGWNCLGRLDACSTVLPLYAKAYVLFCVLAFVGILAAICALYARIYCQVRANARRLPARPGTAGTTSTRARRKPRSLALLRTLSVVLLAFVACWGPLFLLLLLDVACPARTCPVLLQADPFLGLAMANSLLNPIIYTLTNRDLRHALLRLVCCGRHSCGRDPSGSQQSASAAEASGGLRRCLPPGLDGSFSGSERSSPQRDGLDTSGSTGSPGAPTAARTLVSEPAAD
Chain of S1P1 (P21453 whole entry): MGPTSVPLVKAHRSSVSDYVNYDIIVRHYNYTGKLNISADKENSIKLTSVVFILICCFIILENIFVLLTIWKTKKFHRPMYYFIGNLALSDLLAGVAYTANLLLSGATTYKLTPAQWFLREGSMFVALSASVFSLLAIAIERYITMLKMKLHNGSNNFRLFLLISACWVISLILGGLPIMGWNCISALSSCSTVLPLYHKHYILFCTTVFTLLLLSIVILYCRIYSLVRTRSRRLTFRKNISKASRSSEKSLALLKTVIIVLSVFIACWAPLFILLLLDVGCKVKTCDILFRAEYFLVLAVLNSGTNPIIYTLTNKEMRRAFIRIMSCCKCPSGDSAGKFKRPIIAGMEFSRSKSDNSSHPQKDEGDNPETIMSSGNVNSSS

Row | IC50 (S1P1; [2]) | IC50 (S1P5; [3]) | IC50 (Human ATX protein; [4]) | IC50 (S1P4; [5]) | Structure (SMILES) | IC50 (S1P1) | result in the OPC assay [1] | IC50 (S1P5) | IC50 (Human ATX protein) | IC50 (S1P4)
1 |  |  |  |  | CCCCCCCCOc1ccc(N2CCN(CCC(=O)O)CC2)cc1 [Example 14, 3-(4-(4-(Octyloxy)phenyl)piperazin-1-yl)propanoic acid] | > 5 µM | positive | > 5 µM | > 10 µM | ≤ 2 µM
2 |  |  |  |  | CCCCCCCCOc1ccc(N2CCN(CC34CCC(C(=O)O)(CC3)CC4)CC2)cc1 [Example 16, 4-((4-(4-(Octyloxy)phenyl)piperazin-1-yl)methyl)bicyclo[2.2.2]octane-1-carboxylic acid] | > 5 µM | positive | > 5 µM | ≤ 5 µM | ≤ 5 µM
3 | > 5 µM | > 5 µM | 5 to 10 µM | 2 to 5 µM | CC[C@H]1CC[C@@H](Oc2ccc(C3CCN(CCCC(=O)O)CC3)cc2)CC1 [Example 36, 4-(4-(4-((cis-4-Ethylcyclohexyl)oxy)phenyl)piperidin-1-yl)butanoic acid] |  |  |  |  | 
4 | 2 to 5 µM | > 5 µM | > 10 µM | ≤ 2 µM | CC[C@H]1CC[C@@H](Oc2ccc(C3CCN(CCCCC(=O)O)CC3)cc2)CC1 [Example 38, 5-(4-(4-((cis-4-Ethylcyclohexyl)oxy)phenyl)piperidin-1-yl)pentanoic acid] |  |  |  |  | 
5 |  |  |  |  | O=C(O)CCN1CC=C(c2ccc(OC3CCC4(CCCC4)CC3)cc2)CC1 [Example 39, 3-(4-(4-(Spiro[4.5]decan-8-yloxy)phenyl)-5,6-dihydropyridin-1(2H)-yl)propanoic acid] | > 5 µM |  | > 5 µM | > 10 µM | 2 to 5 µM
6 | 2 to 5 µM | ≤ 2 µM | ≤ 5 µM | ≤ 2 µM | O=C(O)CCN1CCC(c2ccc(OC3CCC4(CCCC4)CC3)cc2)CC1 [Example 40, 3-(4-(4-(Spiro[4.5]decan-8-yloxy)phenyl)piperidin-1-yl)propanoic acid] |  |  |  |  | 
7 | > 5 µM | > 5 µM | 5 to 10 µM | 2 to 5 µM | O=C(O)CCCN1CCC(c2ccc(OC3CCC4(CCCC4)CC3)cc2)CC1 [Example 42, 4-(4-(4-(Spiro[4.5]decan-8-yloxy)phenyl)piperidin-1-yl)butanoic acid] |  |  |  |  | 
8 | > 5 µM | ≤ 2 µM | > 10 µM | ≤ 2 µM | O=C(O)CCCCN1CCC(c2ccc(OC3CCC4(CCCC4)CC3)cc2)CC1 [Example 44, 5-(4-(4-(Spiro[4.5]decan-8-yloxy)phenyl)piperidin-1-yl)pentanoic acid] |  |  |  |  | 
9 | ≤ 2 µM | > 5 µM | 5 to 10 µM | ≤ 2 µM | CC(C)(C)[C@H]1CC[C@H](Oc2ccc(C3CCN(CCC(=O)O)CC3)cc2)CC1 [Example 46, 3-(4-(4-((trans-4-(tert-Butyl)cyclohexyl)oxy)phenyl)piperidin-1-yl)propanoic acid] |  |  |  |  | 
10 | ≤ 2 µM | ≤ 2 µM | ≤ 5 µM | ≤ 2 µM | CC(C)(C)[C@H]1CC[C@H](Oc2ccc(C3CCN(CCCC(=O)O)CC3)cc2)CC1 [Example 48, 4-(4-(4-((trans-4-(tert-Butyl)cyclohexyl)oxy)phenyl)piperidin-1-yl)butanoic acid] |  |  |  |  | 

Row | Structure (SMILES) | IC50 (S1P1; [2]) | IC50 (S1P5; [3]) | IC50 (Human ATX protein; [4]) | IC50 (S1P4; [5]) | IC50 (S1P1) | result in the OPC assay [1] | IC50 (S1P5) | IC50 (Human ATX protein) | IC50 (S1P4)
11 | CC[C@H]1CC[C@@H](Oc2ccc(C3=CCN(CCCCC(=O)O)CC3)cc2)CC1 [Example 37, 5-(4-(4-((cis-4-Ethylcyclohexyl)oxy)phenyl)-5,6-dihydropyridin-1(2H)-yl)pentanoic acid] |  | 2 to 5 µM | ≤ 5 µM |  | ≤ 2 µM |  |  |  | ≤ 2 µM
12 | O=C(O)CCCN1CC=C(c2ccc(OC3CCC4(CCCC4)CC3)cc2)CC1 [Example 41, 4-(4-(4-(Spiro[4.5]decan-8-yloxy)phenyl)-5,6-dihydropyridin-1(2H)-yl)butanoic acid] | > 5 µM | 2 to 5 µM | ≤ 5 µM | 2 to 5 µM |  |  |  |  | 
13 | O=C(O)CCCCN1CC=C(c2ccc(OC3CCC4(CCCC4)CC3)cc2)CC1 [Example 43, 5-(4-(4-(Spiro[4.5]decan-8-yloxy)phenyl)-5,6-dihydropyridin-1(2H)-yl)pentanoic acid] |  | > 5 µM | > 10 µM |  | > 5 µM |  |  |  | 2 to 5 µM
14 | CC(C)(C)[C@H]1CC[C@H](Oc2ccc(C3=CCN(CCC(=O)O)CC3)cc2)CC1 [Example 45, 3-(4-(4-((trans-4-(tert-Butyl)cyclohexyl)oxy)phenyl)-5,6-dihydropyridin-1(2H)-yl)propanoic acid] |  | > 5 µM | 5 to 10 µM |  | 2 to 5 µM |  |  |  | ≤ 2 µM
15 | CC(C)(C)[C@H]1CC[C@H](Oc2ccc(C3=CCN(CCCC(=O)O)CC3)cc2)CC1 [Example 47, 4-(4-(4-((trans-4-(tert-Butyl)cyclohexyl)oxy)phenyl)-5,6-dihydropyridin-1(2H)-yl)butanoic acid] |  | ≤ 2 µM | ≤ 5 µM |  | ≤ 2 µM |  |  |  | ≤ 2 µM
